Source: patent US9365534B2, “Arylated camphenes, processes for their preparation and uses thereof” (Yissum Research Development Company of the Hebrew …, priority 2009, dated 2016)
Like-named read-outs stand apart in the source and are kept apart here.

Key:
[1] = biological target: T1, human CB1 receptor (Homo sapiens (Human), UniProt P21554); assay: Membrane competition binding assay with [3H]-CP 55,940, CHO-CB1 membranes
Excerpt: (§1) The cDNA clones for human HA-tagged CB1 and CB2 receptors were obtained from the Missouri S&T cDNA Resource Center (www.cdna.org) in cloning vector pcDNA3.1+. The vector containing the human CB2 receptor was transfected directly into CHO-KI cells obtained from ATCC. The HA-tagged human CB1 receptor sequence was subcloned into the pef4-V5-HisA vector with Kpn1 and Pme1 restriction enzymes and subsequently transfected into CHO-K1 cells. Cells were clonally isolated by limited dilution and screened by immunocytochemistry for expression of the HA tag.
(§2) Cells were maintained in DMEM/F12 media supplemented with 10% fetal bovine serum (FBS), 100 units/ml penicillin and 100 μg/ml streptomycin and 2 mM L-glutamine. Transfected cell lines were maintained with additional 150 ug/ml zeocin for pEF HA-CB1 transfected cells and 500 ug/ml G-418 for pcDNA HA-CB2 transfected cells (all reagents obtained from Invitrogen).
(§3) Cells were grown to confluence and harvested in ice cold phosphate buffered saline with 5 mM EDTA. Cells were spun at 200×g for 10 min and frozen at −80° C. until required. Cell pellets were thawed with cold 0.32 M sucrose and homogenised with a glass homogeniser. The homogenate was spun at 1000×g for 10 min at 4° C. and the supernatant spun in a Sorvall ultracentrifuge for 30 min at 100,000×g. The pellet was then washed in ice cold water and re-spun twice more. The final pellet was resuspended in 50 mM Tris pH 7.5, 0.5 mM EDTA. Protein concentration was determined using the Dc protein assay kit (BioRad, Hercules, Calif., USA).
(§4) Membranes (5-10 μg) were incubated with radioligand and a range of concentrations of test compounds in binding buffer (50 mM Tris pH 7.4, 5 mM MgCl2, 1 mM EDTA) with 0.5% (w/v) bovine serum albumin (BSA) (ICP Bio, New Zealand), at 30° C. for 60 min. Stock solutions of putative cannabinoid ligands were prepared in dimethyl sulfoxide to a concentration of 10 mM. Six different final concentrations of compounds were used ranging from 50 μM to 0.1 nM. […] Assays were terminated by addition of 2 ml ice cold binding buffer and filtration through GF/C filters (Whatman) pre-soaked in cold binding buffer, followed by two washes in the same buffer.
(§5) Radioactivity was determined by incubation of filters with Irgasafe scintillation fluid (PerkinElmer) and scintillation counting in a Wallac Trilux using Microbeta Trilux software. Data was analysed using the Prism 4.02 programme (GraphPad Software, San Deigo, Calif., USA).
(§6) All data was analyzed using Prism 4.02. For binding data the Ki was determined from IC50 values derived from competition binding data fitted with one site competition non-linear regression analysis by Prism 4.02 using the Kd values reported above.

[2] = biological target: T2, human CB2 receptor (Homo sapiens (Human), UniProt P34972); assay: cell-based
Excerpt: as §1, §2
(§7) Cells were seeded at a density of 10,000 cells per well in poly-L-lysine treated 96-well culture plates (BD Biosciences). The following day wells were incubated with 40 μl DMEM/F12 containing 0.5% (w/v) BSA and 0.5 mM 3-isobutyl-1-methylxanthine (Sigma-Aldrich) for 30 minutes prior to 15 min stimulation with 50 μM forskolin (Tocris Cookson) and varying concentrations of indicated compounds at 37° C., 5% CO2. Assays were stopped by removal of media and addition of 100% ice cold ethanol. Plates were then frozen for a minimum of two hours before complete evaporation of ethanol. The well contents were then reconstituted in 50 μl cAMP assay buffer (20 mM HEPES pH 7.5 and 5 mM EDTA). Half of the reconstituted sample was transferred to round bottom 96-well plates (Greiner Bio-One GmbH) with 50 μl 0.01% w/v PKA (cAMP dependent protein kinase (Sigma-Aldrich) in 1 mM Na citrate pH 6.5 with 2 mM dithiothreitol) and 25 μl [^3H]-cAMP (at 22 nM in cAMP assay buffer) (GE Healthcare, Life Sciences). This was allowed to equilibrate for 3-18 hours. Following this a charcoal slurry (5% (w/v) activated charcoal and 0.2% (w/v) BSA in cAMP assay buffer) was added to the samples and the plates centrifuged at 3000×g, 4° C. for 5 min. Radioactive counts within the supernatant were then determined as described for competition binding assays.
(§8) pIC50 values were determined from cAMP assays by fitting a sigmoidal concentration response curve using Prism 4.02.

[3] = biological target: T1, human CB1 receptor; assay: cell-based
Excerpt: as §1, §2, §7, §8

[4] = biological target: T2, human CB2 receptor; assay: Membrane [35S]GTPγS binding assay; assay type: biochemical; details: for Emax: read-out: [35S]GTPγS Emax
Description: Human CB2 expressing CHO-K1 membranes (5 μg per incubation mixture) were diluted in 50 mM Tris-HCl (pH 7.5) and 0.5 mM EDTA and added to HU compounds in a pre-mixed incubation cocktail. Final incubation concentrations were 55 mM Tris-HCl (pH 7.4), 1 mM EDTA, 100 mM NaCl, 5 mM MgCl2, 0.5% BSA, 50 μM GDP, 0.2 nM [^35S]GTPγS (PerkinElmer) with varied HU compound concentration and 5 μg membrane. Incubations were continued for 60 minutes at 30° C. in a shaking water bath. Assays were terminated by addition of 2 ml ice cold wash buffer (50 mM Tris-HCl, pH 7.5 and 5 mM MgCl2) and filtration through pre-soaked GF/C filters (Whatman), followed by two further washes. adioactivity was determined as described for competition binding assays.
Data was analyzed using the Prism 4.02 programme (GraphPad Software, San Deigo, Calif., USA). IC50 and EC50 values, as determined from sigmoidal curves, were generated from drug concentrations plotted in log scale. […] It is possible to display data as an average, plus or minus the standard error of the mean in log form, however, this is not easily interpreted or compared to other values. It was therefore elected to calculate the 95% confidence interval for the mean value in log form and then convert the lower limit, mean and upper limit into the molar (linear) scale. […] Two-tailed t-tests for statistical analysis between enantiomeric pairs of compounds were performed for CB2 Ki values. The Pearson value, an indication of linearity, was determined for Ki and IC50 or EC50 results obtained for CB2 receptors in binding, cAMP or GTPγS experiments, respectively.

[5] = biological target: T2, human CB2 receptor; assay: Membrane competition binding assay with [3H]-CP 55,940, CHO-CB2 membranes
Excerpt: as §1, §2, §3, §4, §5, §6

[6] = CHO-CB1 cellular membranes, 2.5 nM [3H]-CP 55,940, read-out: Competition Binding Assay CB1 Receptor Ki
[7] = CHO, read-out: cAMP Assay CB2 Receptor Emax
[8] = read-out: cAMP Assay CB2 Receptor IC50
[9] = whole cells expressing CB1, 50 μM forskolin, read-out: cAMP Assay CB1 Receptor IC50
[10] = CHO; read-out: cAMP Assay CB2 Receptor Emax
[11] = whole cells expressing CB2, 50 μM forskolin; read-out: cAMP Assay CB2 Receptor IC50
[12] = human CB2 CHO-K1 membranes, mean (95% confidence interval), n = 5
[13] = CHO-CB2 cellular membranes, 2.5 nM [3H]-CP 55,940

T1 sequence (P21554 whole entry): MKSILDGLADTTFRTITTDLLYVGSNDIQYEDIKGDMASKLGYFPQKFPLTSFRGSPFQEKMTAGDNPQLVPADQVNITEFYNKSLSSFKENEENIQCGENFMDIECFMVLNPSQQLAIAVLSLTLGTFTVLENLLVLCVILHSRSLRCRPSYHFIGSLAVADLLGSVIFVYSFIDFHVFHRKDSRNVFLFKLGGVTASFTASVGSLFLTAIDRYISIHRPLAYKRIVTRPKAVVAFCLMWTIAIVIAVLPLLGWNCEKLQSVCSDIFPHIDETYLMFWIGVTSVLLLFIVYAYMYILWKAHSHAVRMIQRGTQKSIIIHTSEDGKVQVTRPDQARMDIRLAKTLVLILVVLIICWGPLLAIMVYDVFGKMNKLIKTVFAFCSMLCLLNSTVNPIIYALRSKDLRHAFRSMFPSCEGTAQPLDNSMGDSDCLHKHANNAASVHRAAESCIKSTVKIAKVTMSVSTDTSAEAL

Row | SMILES | Ki [1, 6] [nM] | Emax [2, 7] [%] | IC50 [2, 8] [nM] | IC50 [3, 9] [nM] | EC50 [4] [nM] | Emax [4] [%] | Ki [5] [nM] | Emax [2, 10] [%] | IC50 [2, 11] [nM] | EC50 [4, 12] [nM] | Ki [5, 13] [nM] | Emax ([3]; CHO, percentage of maximal response of HU-210, mean ± SEM, read-out: cAMP Assay CB1 Receptor Emax) [%] | Ki [1] [nM] | IC50 [3] [nM]
1 | CCCCCCC(C)(C)c1cc(OC)c(C2=C[C@@H]3CC[C@@]2(CO)C3(C)C)c(OC)c1 [HU-909, (1R,4S)-(2-(2,6-dimethoxy-4-(2-methyloctan-2-yl)phenyl)-7,7-dimethylbicyclo[2.2.1]hept-2-en-1-yl)methanol] | 11700 | 95 ± 6 | 425 | > 50000 | 136 | 76 ± 7 | 56.8 | – | – | – | – | – | – | –
2 | CCCCCCC(C)(C)c1cc(OC)c(C2C(O)[C@]3(C)CC[C@H]2C3(C)C)c(OC)c1 (stereo partly drawn) [HU-928, (1R,4R)-3-(2,6-dimethoxy-4-(2-methyloctan-2-yl)phenyl)-1,7,7-trimethylbicyclo[2.2.1]heptan-2-ol] | > 50000 | 101 ± 11 | 925 | > 50000 | 577 | 95 ± 5 | 230 | – | – | – | – | – | – | –
3 | CCCCCCC(C)(C)c1cc(OC)c(C2=C[C@@H]3CC[C@@]2(C(=O)O)C3(C)C)c(OC)c1 [HU-913, (1R,4S)-2-(2,6-dimethoxy-4-(2-methyloctan-2-yl)phenyl)-7,7-dimethylbicyclo[2.2.1]hept-2-ene-1-carboxylic acid] | > 50000 | 101 ± 11 | 330 | > 50000 | 344 | 98 ± 3 | 81.5 | – | – | – | – | – | – | –
4 | CCCCCCC(C)(C)c1cc(OC)c(C2C(=O)[C@]3(C)CC[C@H]2C3(C)C)c(OC)c1 (stereo partly drawn) [HU-926, (1R,4R)-3-(2,6-dimethoxy-4-(2-methyloctan-2-yl)phenyl)-1,7,7-trimethylbicyclo[2.2.1]heptan-2-one] | > 50000 | – | – | > 50000 | – | 51 ± 6 | – | 100 ± 13 | 321 | 185 | 106 | – | – | –
5 | CCCCCCC(C)(C)c1cc(OC)c(C2=C[C@H]3CC[C@]2(C(=O)OC)C3(C)C)c(OC)c1 [HU-912, (1S,4R)-methyl-2-(2,6-dimethoxy-4-(2-methyloctan-2-yl)phenyl)-7,7-dimethylbicyclo[2.2.1]hept-2-ene-1-carboxylate] | > 10000 | – | – | 3370 | – | – | – | 107 ± 4 | 239 | – | 77.1 | 112 ± 8 | – | –
6 | CCCCCCC(C)(C)c1cc(OC)c([C@@H]2C=C(CO)[C@@H]3C[C@H]2C3(C)C)c(OC)c1 [HU-308, [(1R,2R,5R)-2-[2,6-dimethoxy-4-(2-methyloctan-2-yl)phenyl]-7,7-dimethyl-4-bicyclo[3.1.1]hept-3-enyl]methanol, reference compound] | – | 100 | – | – | – | 100 | – | – | – | – | – | – | > 50000 | > 50000
7 | CCCCCCC(C)(C)c1cc(OC)c(C2=C[C@@H]3CC[C@@]2(C(=O)OC)C3(C)C)c(OC)c1 [HU-911, (1R,4S)-methyl-2-(2,6-dimethoxy-4-(2-methyloctan-2-yl)phenyl)-7,7-dimethylbicyclo[2.2.1]hept-2-ene-1-carboxylate] | > 50000 | – | – | > 50000 | – | 94 ± 4 | – | 86 ± 9 | 385 | 126 | 84.6 | – | – | –
8 | CCCCCc1cc(OC)c(C2=C[C@H]3CC[C@]2(C(=O)OC)C3(C)C)c(OC)c1 [HU-972, (1S,4R)-methyl-2-(2,6-dimethoxy-4-pentylphenyl)-7,7-dimethylbicyclo[2.2.1]hept-2-ene-1-carboxylate] | > 50000 | 48 ± 5 | 313 | > 50000 | – | – | 168 | – | – | – | – | – | – | –
